In the test the test system is wild-type IDH1 (αKG) in HT1080 cells. The test is described as follows: HT1080 cell assay, intracellular αKG. Conditions: highest concentration tested shown if curve did not reach 50%. Type of test: cell-based.

pIC50: −log10 of the molar value.

For `C=CC(=O)N1CCN(C(CC2CC2)c2ccc([C@H](C)Nc3ncc4c(n3)N(C)C(=O)OC4)cc2)CC1` (single isomer, unassigned) [Example 3], the pIC50 is less than 6.70.

In turn, `C=CC(=O)N1CCN(C(CC2CC2)c2ccc([C@H](C)Nc3ncc4c(n3)N(C)C(=O)OC4)cc2)CC1` (single isomer, unassigned) [Example 4] had a pIC50 of less than 6.70.

With `C=CC(=O)N1CCN(C(CC(C)C)c2ccc([C@H](C)Nc3ncc4c(n3)N(CC)C(=O)OC4)cc2)CC1` (single isomer, unassigned) [Example 7], the pIC50 is less than 6.70.

Turning to `C=CC(=O)N1CCN(C(CC(C)C)c2ccc([C@H](C)Nc3ncc4c(n3)N(CC)C(=O)OC4)cc2)CC1` (single isomer, unassigned) [Example 8], the pIC50 was less than 6.70.

With `C=CC(=O)N1CCN(C(CC2CC2)c2ccc([C@H](C)Nc3cc4c(cn3)COC(=O)N4C)cc2)CC1` (single isomer, unassigned) [Example 9], the negative logarithm of the IC50 (pIC50) was less than 4.70.

`C=CC(=O)N1CCN(C(CC2CC2)c2ccc([C@H](C)Nc3cc4c(cn3)COC(=O)N4C)cc2)CC1` (single isomer, unassigned) [Example 10]: the negative logarithm of the IC50 (pIC50) was less than 4.70.

As to `C=CC(=O)N1CCN(C(CC)c2ccc([C@H](C)Nc3ncc4c(n3)N(CC)C(=O)OC4)cc2)CC1` (single isomer, unassigned) [Example 11], the pIC50 is less than 4.70.

As for `C=CC(=O)N1CCN(C(CC)c2ccc([C@H](C)Nc3ncc4c(n3)N(CC)C(=O)OC4)cc2)CC1` (single isomer, unassigned) [Example 12], the negative-log IC50 (pIC50) was less than 4.70.

In turn, `C=CC(=O)N1CCN(C(CCOC)c2ccc([C@H](C)Nc3ncc4c(n3)N(CC)C(=O)OC4)cc2)CC1` (single isomer, unassigned) [Example 13] showed a pIC50 of less than 4.70.

The compound `C=CC(=O)N1CCN(C(CCOC)c2ccc([C@H](C)Nc3ncc4c(n3)N(CC)C(=O)OC4)cc2)CC1` (single isomer, unassigned) [Example 14] showed a negative-log IC50 (pIC50) of less than 4.70.

For the origin of these results see US11629156B2, “7-phenylethylamino-4H-pyrimido[4,5-d][1,3]oxazin-2-one compounds as mutant IDH1 and IDH2 inhibitors” (Eli Lilly and Company, priority 2016, dated 2023).
